According to US11088380B2, “Electrolyte solution for redox flow battery and redox flow battery comprising same” (Seoul National University R&DB Foundation, priority 2013, dated 2021):
Values after ≈ are worked out from the molar mass of the structure shown.

experiment: physchem; conditions: not given
Description: Menadione purchased from Sigma Aldrich was dissolved in propylene carbonate solution comprising tetrafluoroborate tetraethylammonium and the maximum amount of Menadione that can be dissolved was checked.
1,4-Naphthoquinone purchased from Sigma Aldrich was dissolved in propylene carbonate solution comprising tetrafluoroborate tetraethylammonium and the maximum amount of 1,4-Naphthoquinone that can be dissolved was checked.
N,N,N′N′-tetramethyl-p-phenylenediamine purchased from Alfa aesar was dissolved in propylene carbonate solution comprising tetrafluoroborate tetraethylammonium and the maximum amount of N,N,N′N′-tetramethyl-p-phenylenediamine that can be dissolved was checked.
Tetrathiafulvalene purchased from Sigma Aldrich was dissolved in propylene carbonate solution comprising tetrafluoroborate tetraethylammonium and the maximum amount of tetrathiafulvalene that can be dissolved was checked.
N,N-dimethyl-p-phenylenediamine purchased from Sigma Aldrich was dissolved in propylene carbonate solution comprising tetrafluoroborate tetraethylammonium and the maximum amount of N,N-dimethyl-p-phenylenediamine that can be dissolved was checked.
Triphenylamine purchased from Sigma Aldrich was dissolved in propylene carbonate solution comprising tetrafluoroborate tetraethylammonium and the maximum amount of triphenylamine that can be dissolved was checked.
4-Hydroxydiphenylamine purchased from Sigma Aldrich was dissolved in propylene carbonate solution comprising tetrafluoroborate tetraethylammonium and the maximum amount of 4-hydroxydiphenylamine that can be dissolved was checked.
4-Amino-diphenylamine purchased from Sigma Aldrich was dissolved in propylene carbonate solution comprising tetrafluoroborate tetraethylammonium and the maximum amount of 4-amino-diphenylamine that can be dissolved was checked.
Thianthrene purchased from Aldrich was dissolved in propylene carbonate solution comprising tetrafluoroborate tetraethylammonium and the maximum amount of thianthrene that can be dissolved was checked.

solubility [mM]	SMILES
600 (≈ 123 mg/mL)	C1=CSC(=C2SC=CS2)S1 [Example 5, Tetrathiafulvalene]
4000 (≈ 737 mg/mL)	Nc1ccc(Nc2ccccc2)cc1 [Example 9, 4-amino-diphenylamine]

same assay, conditions: maximum amount dissolved in propylene carbonate solution comprising tetrafluoroborate tetraethylammonium

SMILES	solubility [mM]
CN(C)c1ccc(N(C)C)cc1 [Example 4, N,N,N′N′-tetramethyl-p-phenylenediamine]	2000 (≈ 329 mg/mL)
Oc1ccc(Nc2ccccc2)cc1 [Example 8, 4-hydroxydiphenylamine]	4000 (≈ 741 mg/mL)

same assay, conditions: organic solvent or mixture, thermodynamic from solid

solubility [mM]	SMILES
100 (≈ 21.6 mg/mL)	c1ccc2c(c1)Sc1ccccc1S2 [Comparative example 2, Thianthrene, reference compound]
300 (≈ 51.7 mg/mL)	CC1=CC(=O)c2ccccc2C1=O [Example 2, menadione]
< 100	c1ccc(N(c2ccccc2)c2ccccc2)cc1 [Example 7, Triphenylamine]

SMILES	solubility [mM]
CN(C)c1ccc(N)cc1 [Example 6, N,N-dimethyl-p-phenylenediamine]	2000 (≈ 272 mg/mL)
O=C1C=CC(=O)c2ccccc21 [Example 3, 1,4-Naphthoquinone]	500 (≈ 79.1 mg/mL)
